Measured values reported in PubChem BioAssay (NCI).
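The compound was tested at five concentrations on cells cultured in 96-well plates, with a 48-hour exposure period. GI50: concentration for 50% inhibition of growth. TGI: total growth inhibition.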

Key:
Test in all cases: inhibition of tumour cell growth, NCI panel, 48 h
SK-MEL-5 melanoma = system: SK-MEL-5 melanoma
NCI/ADR-RES ovarian = system: NCI/ADR-RES ovarian
M14 melanoma = system: M14 melanoma
OVCAR-5 ovarian = system: OVCAR-5 ovarian
MCF7 breast = system: MCF7 breast
CCRF-CEM leukemia = system: CCRF-CEM leukemia
PC-3 prostate = system: PC-3 prostate
OVCAR-8 ovarian = system: OVCAR-8 ovarian
EKVX NSCLC = system: EKVX NSCLC
COLO 205 colon = system: COLO 205 colon

Compound	GI50 (SK-MEL-5 melanoma) [µM]	TGI (SK-MEL-5 melanoma) [µM]	GI50 (NCI/ADR-RES ovarian) [µM]	TGI (NCI/ADR-RES ovarian) [µM]	GI50 (M14 melanoma) [µM]	TGI (M14 melanoma) [µM]	GI50 (OVCAR-5 ovarian) [µM]	TGI (OVCAR-5 ovarian) [µM]	GI50 (MCF7 breast) [µM]	TGI (MCF7 breast) [µM]	GI50 (CCRF-CEM leukemia) [µM]	TGI (CCRF-CEM leukemia) [µM]	GI50 (PC-3 prostate) [µM]	TGI (PC-3 prostate) [µM]	GI50 (OVCAR-8 ovarian) [µM]	TGI (OVCAR-8 ovarian) [µM]	GI50 (EKVX NSCLC) [µM]	TGI (EKVX NSCLC) [µM]	GI50 (COLO 205 colon) [µM]	TGI (COLO 205 colon) [µM]
COc1ccc(Cc2cnc(NC(=O)c3ccc4c(c3)OCCO4)s2)cc1	0.0268	0.168	0.024	> 100	0.0228	22.4	0.0866	> 72.6	0.0307	> 100	0.0388	> 100	0.0303	> 100	0.0426	> 100	0.0596	> 100	0.0289	0.319
Nc1nc(N)nc(CCCc2nc(N)nc(N)n2)n1		> 100		> 100		> 100		> 100		> 100		> 100		> 100		> 100		> 100		> 100
Nc1ccc2[nH]cc(CCC(=O)O)c2c1		> 100		> 100		> 100		> 100		> 100		32.9		> 100		> 100		> 100		> 100
COC(=O)CCC1=C(CC(=O)OC)C(C)=N/C1=C\c1[nH]c(-c2ccc[nH]2)cc1OC	1.44	3.23	4.06	16.9	4.51	16.2	3.9	18.8	2.38	13.5	1.68	29.8	5.32	22.6	2.92	11.4	5.61	25.3	3.79	16.3
O=C(NO)c1ccc(CN(c2cnccn2)c2cnccn2)cc1	13.1	26.1	10.3	37.4	11.1	28.3	14.7	52.6	12.1	> 100	11.2	> 100	11.7	31.4	3.75	17.2	15.9	36.7	2.96	8.17
Nc1nc(N)c2cc(CNc3ccc(C(=O)NC(CC(=O)O)C(=O)O)c(Cl)c3)ccc2n1 (stereo not drawn)	0.05	> 500	0.05	> 500	0.05	> 500	0.05	> 500		> 500	0.05	> 500	< 0.01	> 500	0.05	> 500	> 500	> 500	0.462	> 500
S=C1SC2=Nc3ccccc3CN2C2=NCCN12	14.8	55.5	> 100	> 100	> 100	> 100	> 100	> 100	51.5	> 100	36.7	> 100	> 100	> 100	> 100	> 100	> 100	> 100	54.4	> 100
COc1ccc(/C=C(/c2ccccc2)[N+](=O)[O-])cc1	1.82	3.29	1.75	4.66	1.42	2.85	1.62	3.26	0.567	2.68	0.415	3.32	1.46	3.21	2.08	6.3	1.73	3.52	1.79	4.07
CCCCCCCCCCN1CCC(N2CCCCC2)CC1	1.54	2.87	6.76	20.2	1.72		3.74	14.4	1.54	3.64	2.08	9.48	2	13	3.81	14	4.37	18.3	1.3	2.56
Nc1ccccc1SC1CC(=O)N(c2ccc(Cl)c(Cl)c2)C1=O (stereo not drawn)	21.9	> 100	17.1	> 100	40.4	> 100	> 100	> 100	27.1	> 100	40.6	> 100	8.78	> 100	20	77.8	17.4	> 100	53.1	> 100
O=C(O)C12CC3(C(=O)O)CC(C(=O)O)(CC(C(=O)O)(C1)C3=O)C2=O		> 100		> 100		> 100		> 100		> 100		> 100		> 100		> 100		> 100		> 100
CCN(CC)CCNC(=O)c1ccc(C)c(OCc2ccccc2)c1[N+](=O)[O-]		30.5		> 62.8		32.3		81.3		> 53.1		81.4		> 100		> 100		> 100		30.8
CC/C=C/C/C=C/C/C=C/C/C=C/C/C=C/C/C=C/CCC(=O)Nc1ccn([C@@H]2O[C@H](CO)[C@@H](O)C2(F)F)c(=O)n1	0.348	17.8	0.0386	16.9	0.0303	0.212	2.83	> 60.8		17.2	0.0537	15.1	6.65	52.3	0.0345	9.55	6.14	> 58.9	0.187	19.1
Cc1ccc(S(=O)(=O)NC(=O)NC2=NC(C)(C)N(c3ccc(Cl)c(Cl)c3)C(N)=N2)cc1		> 100		> 100		> 100		> 100		> 100		> 100		> 100		> 100		> 100		> 100
NC(=S)N/N=C/c1cc(-c2cccc(N)c2)ccn1	1.69	7.26	2.68	> 100	1.49	4.21	3.96	> 100	2	> 44.8	0.674	> 36.1	1.07	> 100	1.66	> 67.9	2.6	> 100	3.41	> 100
CCCCCc1ccc(S(=O)(=O)Nc2cc(-c3csc(NC(C)=O)n3)ccc2N2CCN(C)CC2)cc1	5.28	9.79	4.54	9.18	2	7.73	5	9.55	1.6	6.45	4.82	20.3	2.23	7.72	5.82	13.1	5.65	10.7	5.16	11.8
O=C(NCc1ccc(S(=O)(=O)c2cc(F)cc(F)c2)cc1)c1ccc2nccn2c1	2.22	> 100	5.08	> 100	< 0.0108	> 100	0.331	> 100	8.69	> 100		> 100		> 100	< 0.01	> 100	23.3	> 100		> 100
O=C(Nc1ccc(Cl)c(Cl)c1)Nc1ccccc1O	7.71	20.5	3.59	28.5	17.7	61.9	15.7	53.2	4.14	21.3	3.35	68.7	3.09	27.9	5.1	32.4	18.2	61.5	5.38	18.6
COc1ccc2c(c1)C(C)Cc1c(ncnc1-n1cnc3cc(C)ccc31)N2C (stereo not drawn)	0.0753	0.589	0.0575	59.5	0.067	13.6	0.294	26.8	0.0379	12.7	0.0324	14.5	0.0407	21	0.244	0.938	0.25	23.2	0.176	0.388
CC[C@@]1(O)C(=O)OCc2c1cc1n(c2=O)Cc2c-1nc1cc(F)c(C)c3c1c2[C@@H](N)CC3	< 0.01	0.0203	< 0.01	> 100	< 0.01	0.111	0.0201		< 0.01	> 100	< 0.01	> 100	0.02	> 100	< 0.01	> 100	0.0377	> 100	0.0265	0.837
Cc1nn(C(=O)c2ccc(Cl)cc2)c2c1C(c1ccc(O)cc1)SC(N)=N2 (stereo not drawn)		> 10		> 10		> 10		> 10		> 10		> 10		> 10		> 10		> 10		> 10
